From US7888319B2, “Compositions and methods for promoting wound healing and tissue regeneration” (MUSC Foundation for Research Development, priority 2004, dated 2011)
Ends that are not written are not given here.

Legend:
NIH-3T3 cells = experiment: In vitro scratch injury of NIH-3T3 monolayer (repopulation, PCNA immunolabeling); format: cell-based; settings: 30 μM
Description: An NIH-3T3 monolayer was pre-treated with ACT 1 peptide (SEQ ID NO:2) for 24 hrs, and “scratch-injured” with a p200 pipette tip. The “scratch injury” was subsequently allowed to “heal” for 24 hours in the presence of (a, b) 30 μM ACT 1 peptide (SEQ ID NO:2), (c, d) 30 μM non-active control peptide (SEQ ID NO: 55), or (e, f) vehicle control solution containing no ACT peptide or control peptide. […] The repopulation of the “scratch injury” occurs in part via migration of the transformed cells crawling into the “scratch injury” area. Figures (b), (d) and (f) show proliferating cell nuclear antigen (PCNA) immunolabeling of cells in the “scratch injury” or at the injury edge.
NIH-3T3 fibroblasts were “scratch injured” and subject to the continuous presence of 30 μM ACT 1 peptide (SEQ ID NO:2) for 24 hours or the control conditions as outlined in FIG. 2. […] The cells have been labeled with fluorescent phalloidin to aid visualization. ACT peptide-treated cells show low levels of repopulation of the scratch injury area (white double headed arrows).
NIH-3T3 cells were grown over 2-3 days until forming a near-confluent monolayer on a tissue culture dish according to standard protocols and the monolayer was then pre-treated with ACT 1 peptide (SEQ ID NO:2) for 24 hrs, and “scratch-injured” with a p200 pipette tip. The “scratch injury” was subsequently allowed to repopulate for 24 hours in the presence of 30 μM ACT 1 peptide (SEQ ID NO:2) dissolved in the culture media (FIG. 2a, b) or in presence of two control conditions (FIG. 2c-f). In the first control condition, the “scratch-injured” cells were allowed to repopulate for 24 hours in the presence of a non-active control peptide (as in FIG. 1) dissolved in the culture media at a concentration of 30 μM (FIG. 2c, d). In the second control condition, phosphate buffered saline (PBS) was added to the culture media and the “scratch-injured” cells were allowed to repopulate in the presence of this vehicle control solution containing no ACT peptide or control peptide (FIG. 2e, f). […] The repopulation of the “scratch injury” occurs in part via migration of the transformed cells crawling into the “scratch injury” area. Figures (FIGS. 2b, d, and f) show proliferating cell nuclear antigen (PCNA) immunolabeling of cells in the “scratch injury” or at the injury edge.
The cells were labeled with fluorescent phalloidin to aid visualization. ACT peptide-treated cells show low levels of repopulation of the scratch injury area (white double headed arrows).

[1] = test system: 4 mm long incisional skin injury; experiment: Incisional skin injury in neonatal mouse; format: in vivo
Description: Neonatal mouse pups were desensitized using hypothermia. A 4 mm long incisional skin injury was made using a scalpel through the entire thickness of the skin (down to the level of the underlying muscle) in the dorsal mid line between the shoulder blades. 30 μl of a solution of 20% pluronic (F-127) gel containing either no (control) or dissolved ACT 1 peptide (SEQ ID NO: 2) at a concentration of 60 μM was then applied to the incisional injuries. Control or ACT peptide containing gel was applied subsequently 24 hours after the initial application. No further application of control and ACT peptide containing gel was made after the second application. […] These differences in inflammation, swelling and healing between the control and ACT peptide and control treated injury persisted at the 72 (c, d) and 96 (e, f) hour time points. […] Note that images of the same injury on the same animal are shown at the different time points during the healing time course. Neonatal mouse pups were desensitized using hypothermia. A 4 mm long incisional skin injury was made using a scalpel through the entire thickness of the skin (down to the level of the underlying muscle) in the dorsal mid line between the shoulder blades. 30 μl of a solution of 20% pluronic (F-127) gel containing either no (control) or dissolved ACT 1 peptide (SEQ ID NO:2) at a concentration of 60 μM was then applied to the incisional injuries. Pluronic gel has mild surfactant properties that may aid in the uniform dispersion of the ACT peptide in micelles. More importantly, 20% pluronic gel stays liquid at temperatures below 15° C., but polymerizes at body temperature (37° C.). This property of pluronic gel probably aided in the controlled release of peptide into the tissue at the site of incisional injury, protecting the peptide from break-down in the protease-rich environment of the wound and also enabling active concentrations of the peptide to maintained over prolonged periods. Control or ACT peptide containing gel was applied subsequently 24 hours after the initial application. […]

[2] = test system: Cx43 gap junction formation; experiment: Cx43 gap junction formation in cultured neonatal myocytes; format: cell-based, rat; settings: 30 μM peptide, 5 days in culture, relative to non-active control peptide and PBS
Description: Myocytes from neonatal rat hearts were grown until forming a near-confluent monolayer on a tissue culture dish according to standard protocols. The cultures were subsequently allowed to culture for a further 5 days in culture medium comprising (a) 30 μM ACT 1 peptide (SEQ ID NO:2), (b) 30 μM non-active control peptide (SEQ ID NO:55), or (c) phosphate buffered saline (PBS) containing no ACT peptide or control. Culture media with added peptides or vehicle control was changed every 24 hours during the experiment. […] This increase in Cx43 gap junction formation in response to ACT peptide is shared by a number of cell types expressing Cx43.
Myocytes from neonatal rat hearts were grown until forming a near-confluent monolayer on a tissue culture dish according to standard protocols. The cultures were subsequently allowed to culture for a further 5 days culture medium comprising 30 μM ACT 1 peptide (SEQ ID NO:2), 30 μM non-active control peptide (SEQ ID NO:55), or phosphate buffered saline (PBS) containing no ACT peptide or control peptide. The non-active control peptide comprises a polypeptide with a carboxy terminus in which the ACT peptide sequence has been reversed. […]

RPRPDDLEI (not fully specified (N-terminus)) [ACT 1, carboxy-terminal 9 amino acids of human Cx43; amino terminus biotinylated in tests]
proliferating cell nuclear antigen (PCNA) immunolabeling of cells in the scratch injury or at the injury edge (NIH-3T3 cells; 24 hours after scratch): only low luminosity consistent with background and non-proliferation | % area of cells repopulating the scratch injury after 24 hours (NIH-3T3 cells; 24 hours, vs control conditions, p<0.000001): reduction of cells in the injury area in the presence of ACT peptide is dramatic | appearance of injury (closure, inflammation, swelling, healing) ([1]; 60 μM in 20% pluronic (F-127) gel, 30 μl, applied at 0 and 24 hours, by 48 hours, vs gel without peptide): significantly more closed, less inflamed, less swollen | differences in inflammation, swelling and healing versus control ([1]; 60 μM in 20% pluronic gel, 72 and 96 hour time points): persisted | scar appearance of wound ([1]; 60 μM in 20% pluronic gel, at 7 days): smoother and less scarred appearance | extent of Cx43 gap junction formation between myocytes [2]: greatly increased
